From PubChem BioAssay (NCI) come the findings set out here.

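Tested at 5 concentrations; 48 h exposure; 96-well plates; endpoints linearly interpolated, else capped at highest concentration. At the TGI there is no net growth.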 Some results are limits rather than exact numbers.

For the first test, the system named is 786-0 renal. The test is described as follows: NCI anticancer screen, dose series, 48 h.
`O=C1/C(=C/c2cccc(Br)c2)CCc2ccccc21` returned a TGI of 29.8 µM.
As for `CC1C2(C)OC(=N)C(C#N)(C(c3ccccc3)O2)C1(C#N)C#N` (stereo not drawn), the TGI worked out at 51.1 µM.
In turn, `O=C1NC2ON=C(c3ccccc3)C2C2ON=C(c3ccccc3)N12` (stereo not drawn) yielded a TGI of over 100 µM.
Still for that read-out and setting: then `CCCCCCCCCCCCCCCCCCNC(=O)C(N)Cc1ccc(OCc2ccccc2)cn1` (stereo not drawn), with 41.6 µM; and `CN(C)Nc1cc(=O)[nH]c(=O)[nH]1`, with over 100 µM.
`O=[N+]([O-])/C(C(Cl)=C(Cl)Cl)=C(\N1CCOCC1)n1nnc2ccccc21` displayed a TGI of 44.8 µM.
`O=c1c2c(oc3ccccc13)-c1ccccc1OC2`: the TGI was determined as 64.2 µM.
Same read-out and setting: then `CCc1c2c([nH]c(=S)c1C#N)CCC2`, with over 100 µM; and `O=C1/C(=C/c2cccc(F)c2)CCCc2ccccc21`, with 30.9 µM.
Consider `COc1ccc2[nH]cc(CCNC(=O)[C@H](Cc3ccccc3)NC(=O)[C@@H](NCC(F)(F)F)C(C)C)c2c1`, for which the TGI is 35.1 µM.
The molecule `C=CCNC1=C2C[C@@H](C)C[C@@H](OC)[C@H](OC(=O)CCN)[C@H](C)/C=C(\C)[C@@H](OC(N)=O)[C@H](OC)/C=C\C=C(/C)C(=O)NC(=CC1=O)C2=O` came in with a TGI of 17 µM.
`C1=NCCN2CCN(CCN=Cc3ccc(cc3)OCc3cccc(n3)COc3ccc1cc3)CC2` returned a TGI of over 50 µM.
Molecule `CCc1n[nH]c(=O)n1/N=C/c1c(O)ccc2ccccc12` yielded a TGI of over 100 µM.
On to `CCOC(=O)c1cccn1S(=O)(=O)c1cc(Cl)ccc1NC(=O)CC`, for which the TGI was over 100 µM.
Still for that read-out and setting: then `C=CCN1C(=O)C=C(c2ccccc2)n2ncc3cccc1c32`, with over 100 µM; and `CC(=O)OC1COC(n2c(O)c(N=NC(N)=S)c3cc(Br)ccc32)C(OC(C)=O)C1OC(C)=O` (stereo not drawn), with over 100 µM; and `CN(C)CCCSc1nc2ccccc2[nH]1`, with over 100 µM.

The next test has as its system SF-539 CNS. The test is described as follows: NCI anticancer screen, dose series, 48 h.
In turn, `O=C1/C(=C/c2cccc(Br)c2)CCc2ccccc21` returned a TGI of 31.4 µM.
The molecule `CC1C2(C)OC(=N)C(C#N)(C(c3ccccc3)O2)C1(C#N)C#N` (stereo not drawn) came in with a TGI of 40.3 µM.
Molecule `O=C1NC2ON=C(c3ccccc3)C2C2ON=C(c3ccccc3)N12` (stereo not drawn) had a TGI of over 100 µM.
Consider `CN(C)Nc1cc(=O)[nH]c(=O)[nH]1`, for which the TGI is over 100 µM.
Same read-out and setting: to `O=[N+]([O-])/C(C(Cl)=C(Cl)Cl)=C(\N1CCOCC1)n1nnc2ccccc21` belongs 32.8 µM; to `O=c1c2c(oc3ccccc13)-c1ccccc1OC2`, 72.7 µM.
`O=C1/C(=C/c2cccc(F)c2)CCCc2ccccc21`: the TGI was determined as 31.2 µM.
In turn, `COc1ccc2[nH]cc(CCNC(=O)[C@H](Cc3ccccc3)NC(=O)[C@@H](NCC(F)(F)F)C(C)C)c2c1` returned a TGI of 34.3 µM.
The same measure, in the same setting: to `C1=NCCN2CCN(CCN=Cc3ccc(cc3)OCc3cccc(n3)COc3ccc1cc3)CC2` belongs over 50 µM; to `CCc1n[nH]c(=O)n1/N=C/c1c(O)ccc2ccccc12`, over 100 µM; to `CCOC(=O)c1cccn1S(=O)(=O)c1cc(Cl)ccc1NC(=O)CC`, over 100 µM.
Consider `C=CCN1C(=O)C=C(c2ccccc2)n2ncc3cccc1c32`, for which the TGI was over 100 µM.
For `CC(=O)OC1COC(n2c(O)c(N=NC(N)=S)c3cc(Br)ccc32)C(OC(C)=O)C1OC(C)=O` (stereo not drawn), the TGI is over 100 µM.

The next test has as its system SW-620 colon. Briefly: NCI anticancer screen, dose series, 48 h.
On to `O=C1/C(=C/c2cccc(Br)c2)CCc2ccccc21`, for which the TGI was found to be 17.9 µM.
Consider `CCCCCCCCCCCCCCCCCCNC(=O)C(N)Cc1ccc(OCc2ccccc2)cn1` (stereo not drawn), for which the TGI came to 59.4 µM.
On to `CN(C)Nc1cc(=O)[nH]c(=O)[nH]1`, for which the TGI was over 100 µM.
Take `O=c1c2c(oc3ccccc13)-c1ccccc1OC2`: the TGI was over 100 µM.
`CCc1c2c([nH]c(=S)c1C#N)CCC2` had a TGI of over 100 µM.
Take `O=C1/C(=C/c2cccc(F)c2)CCCc2ccccc21`: the TGI was 30.5 µM.
With `COc1ccc2[nH]cc(CCNC(=O)[C@H](Cc3ccccc3)NC(=O)[C@@H](NCC(F)(F)F)C(C)C)c2c1`, the TGI came out at 81.6 µM.
In turn, `C=CCNC1=C2C[C@@H](C)C[C@@H](OC)[C@H](OC(=O)CCN)[C@H](C)/C=C(\C)[C@@H](OC(N)=O)[C@H](OC)/C=C\C=C(/C)C(=O)NC(=CC1=O)C2=O` came in with a TGI of over 100 µM.
Molecule `C1=NCCN2CCN(CCN=Cc3ccc(cc3)OCc3cccc(n3)COc3ccc1cc3)CC2` registered a TGI of over 50 µM.
`CCc1n[nH]c(=O)n1/N=C/c1c(O)ccc2ccccc12` yielded a TGI of over 100 µM.
Consider `CCOC(=O)c1cccn1S(=O)(=O)c1cc(Cl)ccc1NC(=O)CC`, for which the TGI is over 100 µM.
With `C=CCN1C(=O)C=C(c2ccccc2)n2ncc3cccc1c32`, the TGI is over 100 µM.
The molecule `CC(=O)OC1COC(n2c(O)c(N=NC(N)=S)c3cc(Br)ccc32)C(OC(C)=O)C1OC(C)=O` (stereo not drawn) had a TGI of over 100 µM.
The molecule `CN(C)CCCSc1nc2ccccc2[nH]1` yielded a TGI of over 100 µM.

A further test deals with KM12 colon. The test is described as follows: NCI anticancer screen, dose series, 48 h.
Molecule `O=C1/C(=C/c2cccc(Br)c2)CCc2ccccc21` gave a TGI of 20.7 µM.
`CC1C2(C)OC(=N)C(C#N)(C(c3ccccc3)O2)C1(C#N)C#N` (stereo not drawn) registered a TGI of over 100 µM.
In the case of `O=C1NC2ON=C(c3ccccc3)C2C2ON=C(c3ccccc3)N12` (stereo not drawn), the TGI is over 100 µM.
The molecule `CCCCCCCCCCCCCCCCCCNC(=O)C(N)Cc1ccc(OCc2ccccc2)cn1` (stereo not drawn) gave a TGI of 35.5 µM.
Same read-out and setting: then `CN(C)Nc1cc(=O)[nH]c(=O)[nH]1`, with over 100 µM.
For `O=[N+]([O-])/C(C(Cl)=C(Cl)Cl)=C(\N1CCOCC1)n1nnc2ccccc21`, the TGI came to 45.6 µM.
`O=c1c2c(oc3ccccc13)-c1ccccc1OC2` displayed a TGI of over 100 µM.
`CCc1c2c([nH]c(=S)c1C#N)CCC2` returned a TGI of over 100 µM.
`O=C1/C(=C/c2cccc(F)c2)CCCc2ccccc21` showed a TGI of 24.4 µM.
On the same count and under the same terms, to `COc1ccc2[nH]cc(CCNC(=O)[C@H](Cc3ccccc3)NC(=O)[C@@H](NCC(F)(F)F)C(C)C)c2c1` belongs 49.7 µM; to `C=CCNC1=C2C[C@@H](C)C[C@@H](OC)[C@H](OC(=O)CCN)[C@H](C)/C=C(\C)[C@@H](OC(N)=O)[C@H](OC)/C=C\C=C(/C)C(=O)NC(=CC1=O)C2=O`, 11.2 µM.
Consider `C1=NCCN2CCN(CCN=Cc3ccc(cc3)OCc3cccc(n3)COc3ccc1cc3)CC2`, for which the TGI was over 50 µM.
For the molecule `CCc1n[nH]c(=O)n1/N=C/c1c(O)ccc2ccccc12`, the TGI is over 100 µM.
`CCOC(=O)c1cccn1S(=O)(=O)c1cc(Cl)ccc1NC(=O)CC` showed a TGI of over 100 µM.
On to `C=CCN1C(=O)C=C(c2ccccc2)n2ncc3cccc1c32`, for which the TGI was over 100 µM.
In the case of `CC(=O)OC1COC(n2c(O)c(N=NC(N)=S)c3cc(Br)ccc32)C(OC(C)=O)C1OC(C)=O` (stereo not drawn), the TGI was over 100 µM.
Same read-out and setting: then `CN(C)CCCSc1nc2ccccc2[nH]1`, with over 100 µM.

The subject of another test is SK-MEL-2 melanoma. The test is described as follows: NCI anticancer screen, dose series, 48 h.
Take `O=C1/C(=C/c2cccc(Br)c2)CCc2ccccc21`: the TGI was 25.8 µM.
Turning to `CC1C2(C)OC(=N)C(C#N)(C(c3ccccc3)O2)C1(C#N)C#N` (stereo not drawn), the TGI was determined as 42.7 µM.
The same measure, in the same setting: to `CCCCCCCCCCCCCCCCCCNC(=O)C(N)Cc1ccc(OCc2ccccc2)cn1` (stereo not drawn) belongs 33.3 µM; to `O=[N+]([O-])/C(C(Cl)=C(Cl)Cl)=C(\N1CCOCC1)n1nnc2ccccc21`, 47.7 µM.
Still for that read-out and setting: to `O=c1c2c(oc3ccccc13)-c1ccccc1OC2` belongs over 100 µM.
Same read-out and setting: then `CCc1c2c([nH]c(=S)c1C#N)CCC2`, with over 100 µM; and `O=C1/C(=C/c2cccc(F)c2)CCCc2ccccc21`, with 29.8 µM.
